Each structure is given as a SMILES string. Read-outs that look alike come from different tables or passages of the source.

Drawing on patent US9433621B2, “Substituted pyridine and pyrimidine derivatives and their use in treating viral infections” (Merck Sharp & Dohme Corp., priority 2010, dated 2016), this text covers EC90 for 51 compounds.

The subject of the test is HCV replicon. The experiment in a line: Cell-Based HCV Replicon Assay. The conditions noted are these: Hepatitis C virus. An outline of the steps:
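Replicon cells, 5000/well, treated 3 days with 10 serial 2-fold dilutions (top 25 μM to 1 μM) in 0.5% DMSO, 10% FBS. Replicon RNA measured by multiplex Taqman RT-PCR (NS5B amplicon, GAPDH control); EC50/EC90 = concentration giving ΔCT of 1/3.2 over baseline from sigmoid fit.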

The mark [1] stands for this setting: HCV Replicon assay, EC90 range, Table VI, read-out: EC90.
[2] abbreviates: 72 h, Table IV, replicon cells, day 3, real time PCR, EC90 = concentration for ΔCT=3.2 over baseline, read-out: EC90.
The mark [3] stands for this setting: 72 h, Table V, class codes, replicon cells, day 3, real time PCR, EC90 = concentration for ΔCT=3.2 over baseline, read-out: EC90 (uM) range.
Where [4] appears, read: HCV Replicon assay, EC90 given as numeric bound, Table VI, read-out: EC90.

In the case of `CCc1nccc2sc(-c3c(C)nc(N)nc3N[C@@H]3C[C@H](CS(=O)(=O)c4ccc(F)c(C)c4)[C@@H](O)[C@H]3O)nc12` [Example 5021], the 90% effect concentration (EC90) (in general, the concentration needed for an effect of 90%) under setting [1] was less than 0.5 µM.

As for `CO[C@@]1(CNc2nc(C)c(-c3nc4c(C)nccc4s3)c(N[C@@H]3C[C@H](C4(O)CCCC4)[C@@H](O)[C@H]3O)n2)CCOC1` [Example 5103], the concentration for an effect of 90% (EC90) under setting [1] is less than 0.5 µM.

As to `Cc1nc(NCC(C)(F)F)nc(N[C@@H]2C[C@H](C(C)(C)O)[C@@H](O)[C@H]2O)c1-c1nc2c(C)nccc2s1` [Example 5221], under setting [1], the EC90 is less than 0.5 µM.

Consider `CCCNc1nc(C)c(-c2nc3c(C4CC4)nccc3s2)c(N[C@@H]2C[C@H](C(C)(F)F)[C@@H](O)[C@H]2O)n1` [Example 5174], for which the EC90 under setting [1] is less than 0.5 µM.

With `Cc1nc(NCC(C)(C)C)nc(N[C@@H]2C[C@H](C(C)(C)S(=O)(=O)c3ccccc3)[C@@H](O)[C@H]2O)c1-c1nc2c(C)nccc2s1` [Example 5068], under setting [1], the EC90 was less than 0.5 µM.

As to `Cc1nc(NCc2c(F)cccc2F)nc(N[C@@H]2C[C@H](C(C)(C)O)[C@@H](O)[C@H]2O)c1-c1nc2c(N)nccc2s1` [Example 4443], the EC90 under setting [2] was found to be 0.055 µM.

Regarding `Cc1ccc(S(=O)(=O)C[C@H]2C[C@@H](Nc3nc(NCCSC(C)(C)C)nc(C)c3-c3nc4c(C)nccc4s3)[C@H](O)[C@@H]2O)cc1F` [Example 5001], under setting [1], the EC90 was less than 0.5 µM.

`CCO[C@@H](CNc1nc(C)c(-c2nc3c(C)nccc3s2)c(N[C@@H]2C[C@H](CO)[C@@H](O)[C@H]2O)n1)C(F)(F)F` [Example 5233]: the EC90 under setting [1] is less than 0.5 µM.

Turning to `CO[C@H]1CCCC[C@@H]1Nc1nc(C)c(-c2nc3c(C)nccc3s2)c(N[C@@H]2C[C@H](CO)[C@@H](O)[C@H]2O)n1` [Example 5136], the EC90 under setting [1] is less than 0.5 µM.

In the case of `CO[C@@H]1CCC[C@@H]1Nc1nc(C)c(-c2nc3c(C)nccc3s2)c(N[C@@H]2C[C@H](C(C)(C)O)[C@@H](O)[C@H]2O)n1` [Example 5144], the EC90 under setting [1] is 0.5 to 5 µM.

Turning to `Cc1nc(NCc2c(F)cccc2F)nc(N[C@@H]2C[C@H](NC(=O)OCc3nccs3)[C@@H](O)[C@H]2O)c1-c1nc2c(C3CC3)nccc2s1` [Example 5084], under setting [1], the EC90 is less than 0.5 µM.

Turning to `Cc1nc(NCC2CC2)nc(N[C@@H]2C[C@H](C(C)(C)N=[N+]=[N-])[C@@H](O)[C@H]2O)c1-c1nc2c(C3CC3)nccc2s1` [Example 5051], the 90% effect concentration (EC90) under setting [1] was less than 0.5 µM.

Consider `COc1ccc(S(=O)(=O)C[C@H]2C[C@@H](Nc3nc(NCCSC(C)(C)C)nc(C)c3-c3nc4c(C)nccc4s3)[C@H](O)[C@@H]2O)cc1F` [Example 5014], for which the 90% effect concentration (EC90) under setting [1] is less than 0.5 µM.

As for `COCCNc1nc(C)c(-c2nc3c(C)nccc3s2)c(N[C@@H]2C[C@H](C(C)(C)NS(C)(=O)=O)[C@@H](O)[C@H]2O)n1` [Example 5036], the 90% effect concentration (EC90) under setting [1] is less than 0.5 µM.

For the compound `Cc1nc(NCC2CC2)nc(N[C@H]2C=C[C@@H](CO)C2)c1-c1nc2c(C)nccc2s1` [Example 5157], under setting [1], the EC90 is less than 0.5 µM.

Regarding `Cc1nc(NCc2c(F)cc(F)cc2F)nc(N[C@@H]2C[C@H](C(C)(C)S(C)(=O)=O)[C@@H](O)[C@H]2O)c1-c1nc2c(C3CC3)nccc2s1` [Example 5065], the EC90 under setting [1] is less than 0.5 µM.

As for `CO[C@H](C)CNc1nc(C)c(-c2nc3c(C)nccc3s2)c(N[C@@H]2C[C@H](CC(C)(C)O)[C@@H](O)[C@H]2O)n1` [Example 5311], the 90% effect concentration (EC90) under setting [1] is less than 0.5 µM.

On to `Cc1nc(NCCCOCC(F)(F)F)nc(N[C@@H]2C[C@H](C(C)(C)O)[C@@H](O)[C@H]2O)c1-c1nc2c(C)nccc2s1` [Example 5208], for which the concentration for an effect of 90% (EC90) under setting [1] was less than 0.5 µM.

Regarding `COCCNc1nc(C)c(-c2nc3cnc(C4CC4)cc3s2)c(N[C@@H]2C[C@H](CO)[C@@H](O)[C@H]2O)n1` [Example 4943], the EC90 under setting [3] is less than 0.5 µM.

Turning to `COC[C@@H](C)Nc1nc(C)c(-c2nc3c(C)nccc3s2)c(N[C@@H]2C[C@H](C(C)(C)OC)[C@@H](O)[C@H]2O)n1` [Example 5274], under setting [1], the EC90 was less than 0.5 µM.

As to `CO[C@H](C)CN(C)c1nc(C)c(-c2nc3c(C)nccc3s2)c(N[C@@H]2C[C@H](C(C)(C)O)[C@@H](O)[C@H]2O)n1` [Example 5171], the EC90 under setting [4] was greater than 1 µM.

Take `CO[C@H](C)CNc1nc(C)c(-c2nc3c(C)nccc3s2)c(N[C@@H]2C[C@H](C(C)(C)NS(C)(=O)=O)[C@@H](O)[C@H]2O)n1` [Example 5038]: the 90% effect concentration (EC90) under setting [1] was less than 0.5 µM.

Take `Cc1nc(NC2CCC2)nc(N[C@@H]2C[C@H](CS(C)(=O)=O)[C@@H](O)[C@H]2O)c1-c1nc2c(C3CC3)nccc2s1` [Example 3513]: the EC90 under setting [2] worked out at 0.054 µM.

`Cc1nc(NCC(F)(F)C(F)(F)C(F)(F)F)nc(N[C@H]2CC[C@@H](CO)C2)c1-c1nc2c(C)nccc2s1` [Example 5166]: the 90% effect concentration (EC90) under setting [1] is less than 0.5 µM.

For `Cc1nc(NCC2CC(F)(F)C2)nc(N[C@@H]2C[C@H](CO)C(O)[C@H]2O)c1-c1nc2c(C3CC3)nccc2s1` (stereo partly drawn) [Example 5297], the 90% effect concentration (EC90) under setting [1] is less than 0.5 µM.

Regarding `COCCNc1nc(C)c(-c2nc3c(C)nccc3s2)c(N[C@@H]2C[C@H](C(C)(C)S(=O)(=O)c3ccccc3)[C@@H](O)[C@H]2O)n1` [Example 5077], the EC90 under setting [1] was less than 0.5 µM.

`Cc1nc(NCC2CC2)nc(N[C@@H]2C[C@H](C(C)(C)S(C)(=O)=O)[C@@H](O)[C@H]2O)c1-c1nc2c(C)nccc2s1` [Example 5070]: under setting [1], the 90% effect concentration (EC90) is less than 0.5 µM.

`Cc1nc(N[C@H](C)c2c(F)c(F)c(C)c(F)c2F)nc(N[C@H]2C=C[C@@H](CO)C2)c1-c1nc2c(C)nccc2s1` [Example 5169]: the EC90 under setting [1] is less than 0.5 µM.

Take `Cc1nc(NCCO)nc(NC2(C)CCC2)c1-c1nc2c(C)nccc2s1` [Example 5219]: the EC90 under setting [1] was less than 0.5 µM.

On to `COCCNc1nc(C)c(-c2nc3c(C4CC4)nccc3s2)c(N[C@@H]2C[C@H](C(=O)NC(C)(C)C)[C@@H](O)[C@H]2O)n1` [Example 4930], for which the EC90 under setting [3] was less than 0.5 µM.

Take `CSCCNc1nc(C)c(-c2nc3c(C4CC4)nccc3s2)c(N[C@@H]2C[C@H](C(F)F)[C@@H](O)[C@H]2O)n1` [Example 5194]: under setting [1], the EC90 was less than 0.5 µM.

Take `CO[C@H](C)CNc1nc(C)c(-c2nc3c(C)nccc3s2)c(N[C@@H]2C[C@H](COc3c(F)ccc(F)c3F)[C@@H](O)[C@H]2O)n1` [Example 5033]: the EC90 under setting [1] was less than 0.5 µM.

`Cc1nc(N[C@H](C)C2CC2)nc(N[C@@H]2C[C@H](C(=O)N3CCOCC3)[C@@H](O)[C@H]2O)c1-c1nc2c(C3CC3)nccc2s1` [Example 4923]: the EC90 under setting [3] is less than 0.5 µM.

Turning to `Cc1nc(NCC2CC2)nc(N[C@@H]2C[C@H](CC(C)(C)O)[C@@H](O)[C@H]2O)c1-c1nc2c(C)nccc2s1` [Example 3552], the EC90 under setting [2] was 0.024 µM.

Turning to `Cc1nc(NCc2cccc(F)c2)nc(N[C@@H]2C[C@H](CO)[C@@H](O)[C@H]2O)c1-c1nc2c(C3CC3)nccc2s1` [Example 4902], the EC90 under setting [3] is less than 0.5 µM.

Regarding `COCCCNc1nc(C)c(-c2nc3c(C)nccc3s2)c(N[C@@H]2C[C@H](C(C)(C)O)[C@@H](O)[C@H]2O)n1` [Example 5161], under setting [1], the EC90 was less than 0.5 µM.

In the case of `Cc1nc(NCC(C)C)nc(N[C@@H]2C[C@H](C(C)(F)F)[C@@H](O)[C@H]2O)c1-c1nc2c(C3CC3)nccc2s1` [Example 5175], under setting [1], the 90% effect concentration (EC90) was less than 0.5 µM.

On to `Cc1nc(N[C@H](C)c2c(F)c(F)c(C)c(F)c2F)nc(N[C@@H]2C[C@H](C(C)(C)O)[C@@H](O)[C@H]2O)c1-c1nc2c(N)nccc2s1` [Example 5028], for which the EC90 under setting [1] was less than 0.5 µM.

In the case of `Cc1nc(NCC(F)(F)C(F)(F)F)nc(N[C@@H]2C[C@H](CS(=O)(=O)c3ccc(F)cc3)[C@@H](O)[C@H]2O)c1-c1nc2c(C3CC3)nccc2s1` [Example 5225], the EC90 under setting [1] is less than 0.5 µM.

As for `Cc1nc(NCc2c(F)cccc2F)nc(NC2(CO)CCCC2)c1-c1nc2c(C)nccc2s1` [Example 5117], under setting [1], the concentration for an effect of 90% (EC90) is less than 0.5 µM.

As for `Cc1nc(NCC2(N(C)C)CCOCC2)nc(N[C@@H]2C[C@H](C(C)(C)O)[C@@H](O)[C@H]2O)c1-c1nc2c(C)nccc2s1` [Example 5282], the 90% effect concentration (EC90) under setting [4] was greater than 1 µM.

On to `Cc1nc(NC(C)(C)C)nc(N[C@@H]2C[C@H](NC(=O)N(C)C)[C@@H](O)[C@H]2O)c1-c1nc2c(C3CC3)nccc2s1` [Example 5097], for which the EC90 under setting [1] is less than 0.5 µM.

Regarding `Cc1nc(NCc2c(F)cccc2F)nc(N[C@@H]2C[C@H](CS(=O)(=O)c3cc(F)cc(F)c3)[C@@H](O)[C@H]2O)c1-c1nc2c(C)nccc2s1` [Example 3754], under setting [2], the EC90 turned out to be 0.015 µM.

As to `CO[C@H](C)CNc1nc(C)c(-c2nc3c(C)nccc3s2)c(N[C@@H]2C[C@H](CS(=O)(=O)c3ccc(F)c(C)c3)[C@@H](O)[C@H]2O)n1` [Example 5012], the concentration for an effect of 90% (EC90) under setting [1] was less than 0.5 µM.

Take `CO[C@H](C)CNc1nc(C)c(-c2nc3c(C)nccc3s2)c(N[C@@H]2C[C@H](C(C)(C)O)[C@@H](O)[C@H]2O)n1` [Example 3030]: under setting [2], the EC90 worked out at 0.104 µM.

In the case of `CNS(=O)(=O)C[C@H]1C[C@@H](Nc2nc(NC3CC3)nc(C)c2-c2nc3c(C)nc(C)cc3s2)[C@H](O)[C@@H]1O` [Example 5027], the EC90 under setting [1] was less than 0.5 µM.

As to `Cc1nc(NCC(F)(F)C(F)(F)F)nc(NC2(CO)CCCC2)c1-c1nc2c(C3CC3)nccc2s1` [Example 5129], the 90% effect concentration (EC90) under setting [1] was less than 0.5 µM.

In the case of `Cc1nc(NCC(C)(C)C)nc(N[C@@H]2C[C@H](C(C)(C)NS(C)(=O)=O)[C@@H](O)[C@H]2O)c1-c1nc2c(C)nccc2s1` [Example 5045], the EC90 under setting [1] was less than 0.5 µM.

Regarding `CCSCCNc1nc(C)c(-c2nc3c(C)nccc3s2)c(N[C@@H]2C[C@H](C(C)(C)O)[C@@H](OC)[C@H]2OC)n1` [Example 5267], under setting [1], the 90% effect concentration (EC90) was less than 0.5 µM.

On to `CO[C@@H](CNc1nc(C)c(-c2nc3c(C4CC4)nccc3s2)c(N[C@@H]2C[C@H](CO)[C@@H](O)[C@H]2O)n1)c1ccc(F)cc1` [Example 5227], for which the EC90 under setting [1] was less than 0.5 µM.

As to `CCC(O)(CC)[C@H]1C[C@@H](Nc2nc(NCCC3CC3)nc(C)c2-c2nc3c(C)nccc3s2)[C@H](O)[C@@H]1O` [Example 5269], the concentration for an effect of 90% (EC90) under setting [1] lay in the range of 0.5 to 5 µM.
